Assay results reported in patent US8691725B2, “Synergistic combination of a glyphosate compound and TBZ” (Dow Global Technologies LLC, priority 2010, dated 2014).

What was measured:
[1] = tested on: Chlorella sp., Chlorella kessleri, and Nostoc commune; assay: Algal efficacy on dry paint film (Modified ASTM 5589), pool Cs + Ck + Nc (Ch-No); type: cell-based
Method: (§1) Each sample was tested in duplicate.
(§2) In this synergy study, three pool of mixed algae were prepared as the test inoculum, Gloeocapsa sp. and Oscillatoria sp. a mix of cyanobacteria grown on BG-11 media; Chlorella sp., Chlorella kessleri, and Nostoc commune are unicellular chlorphytes that were mixed and grown on Bold media; Trentepohlia aurea, Tretepohlia odorata, and Calotrix parientina are filamentous algae that were mixed and grown on Bold media.
(§3) The plates were incubated at room temp (25° C.-26° C.) with cyclic exposure to light (OTT-Lite model # OTL4012P, 40 Watt, 26 KLumen) and dark phases, for a period of four weeks. The total area covered was evaluated at the end of each week according to percent area covered in 5% increments.
(§4) The SI is calculated based on F. C. Kull et.
(§5) SI value of <1 in the formula indicates a synergism of the blended biocides exists.
(§6) NE=no end point at the concentration tested that will meet the percent inhibition criteria set in each SI calculation.

[2] = tested on: Trentepohlia aurea, Tretepohlia odorata, and Calotrix parientina; assay: Algal efficacy on dry paint film (Modified ASTM 5589), pool Cp + To + Ta (Cal-Tre); type: cell-based
Method: as §1, §2, §3, §4, §5, §6

[3] = tested on: Gloeocapsa sp. and Oscillatoria sp.; assay: Algal efficacy on dry paint film (Modified ASTM 5589), pool Gs + Os (Os-Gl); type: cell-based
Method: as §1, §2, §3, §4, §5, §6

[4] = tested on: Aspergillus niger mixed with Penicillium funiculosum; assay: Fungal efficacy on dry paint film (Modified ASTM 5590), pool An + Pf; type: cell-based; settings: for % Inhibition: at the total conc for the same composition
Method: as §1, §4, §5, §6

[5] = tested on: Ap-Ch; assay: Fungal efficacy on dry paint film (Modified ASTM 5590), pool Ap-Ch; type: cell-based, Aureobasidium pullulans + Cladosporium herbarum
Method: as §1, §4, §5, §6

[6] = tested on: Aa-Tv; assay: Fungal efficacy on dry paint film (Modified ASTM 5590), pool Aa-Tv; type: cell-based, Alternaria alternata + Trichoderma viride
Method: as §1, §4, §5, §6

[7] = cited from earlier work
[8] = at the total conc for the same composition

Molecule: c1ccc2[nH]c(-c3cscn3)nc2c1 [TBZ, thiabendazole]
- % Inhibition [1, 8]: 80%
- Total conc (minimum inhibitory concentration chosen for SI) ([1]; total actives in paint): 2475 pppm
- % Inhibition [2, 8]: 80%
- Total conc (minimum inhibitory concentration chosen for SI) ([2]; total actives in paint): 1650 pppm
- % Inhibition [3, 8]: 80%
- Total conc (minimum inhibitory concentration chosen for SI) ([3]; total actives in paint): 3300 pppm
- % Inhibition [4]: 70%
- Total conc (minimum inhibitory concentration chosen for SI) ([4]; total actives in paint): 2475 pppm
- % Inhibition [5, 8]: 100%
- Total conc (minimum inhibitory concentration chosen for SI) ([5]; total actives in paint): 1650 pppm
- % Inhibition [6, 8]: 0%
- Total conc (minimum inhibitory concentration chosen for SI) ([6]; total actives in paint): 3300 pppm

Molecule: O=C(O)CNCP(=O)(O)O [glyphosate, N-(phosphonomethyl)glycine]
- solubility in water [7]: relatively high solubility in water

Molecule: zinc glyphosate
- % Inhibition [4]: 70%
